From PMC9555560, “Fast relaxing red and near-IR switchable azobenzenes with chalcogen and halogen substituents: periodic trends, tuneable thermal half-lives and chalcogen bonding” (Chemical Science, 2022)

Columns and labels:
Type in all cases: physicochemical
[1] = UV-vis spectra of the E isomers (n → π* absorption maximum); conditions: E isomer, DMSO
Text: The UV-vis spectra of the (E)-X4 derivatives and (E)-X2,m-Y2 are shown in Fig. 3 (analogous spectra for the Z isomers, and deconvoluted spectra are available in the ESI ^†). […] The n → π* transition maximum, λmax, typically followed the order meta-H > –NMe2 > –OMe and ortho-S > Cl > F. It is clear from these experiments that the four ortho X substituents in the X4 derivatives are essential for achieving the deeply red-shifted tails which allows for red/near-IR triggered photo-isomerisation.
(§1) All UV-vis spectra were determined in DMSO solution. Extinction coefficients were determined by recording a UV-vis spectra for the E isomer at 10, 20, 30, 40 µM in DMSO respectively. The absorbance at the maximum of the π - π* transition of the E‐isomers was plotted against concentration (Beer-Lambert plot) to determine the molar extinction coefficient ε. For each slow relaxing compound, the E isomer sample at 40 µM was irradiated with the appropriate wavelength of light to generate the photo-stationary state, and another spectrum was run. This spectrum was normalised to units of ε and overlaid with the dark (100% E isomer) spectrum.

[2] = Half-life of the Z → E thermal isomerisation (UV-vis absorbance followed over time after irradiation); conditions: for τ 1/2: 298 K
Method: (§2) The E → Z photo-isomerisation and half-life for the Z → E thermal isomerisation was evaluated for all derivatives (Fig. 7 and Table 1, see ESI ^† for original data). To our surprise, the half-lives for (Z)-X2,m-Y2 derivatives were in the order of hours to days for X = F and Cl: the effect of the meta group was not as drastic as anticipated. We typically observed a ∼4 fold decrease in half-life by substituting H with OMe, and a further 3-fold drop from OMe to NMe2 for X = F, Cl and SEt. The nature of the ortho-substituent appeared to be the main influence on τ1/2 (F > Cl ≫ SEt). However, these predictable trends observed for the meta-substitution allow for precise tuning of thermal half-lives. The photo-stationary states (PSSs) of these derivatives ranged from 48–77% Z isomer (Table 1).
All UV-vis spectra were determined in DMSO solution. […]
Lambert plot) to determine the molar extinction coefficient ε. For each slow relaxing compound, the E isomer sample at 40 µM was irradiated with the appropriate wavelength of light to generate the photo-stationary state, and another spectrum was run. This spectrum was normalised to units of ε and overlaid with the dark (100% E isomer) spectrum. […]
Photo-irradiation of liquid samples was carried out using Thorlabs high-power mounted LEDs (models […]
M530L4 (green, 530 nm); in-house custom built set-ups using optical components supplied by Thorlabs, as described in reference 2
Equation y = y0 + A1*exp(-(x-x0)/t1
Figure S327. Lifetime plot of (Z)-Br4-NHBoc based on following UV-Vis absorbance over time after irradiation with 625 nm light (rt, DMSO). Data consistent with NMR half-life data.
Figure S328. Reversible of switching of I4-NHBoc over time after irradiation with 6 60 nm light (rt, DMSO). Dots : raw data, Line: 1st order Exponential Fit […]

[3] = E → Z photo-isomerisation with LEDs / photo-stationary state (PSS) determination; conditions: under irradiation
Method: as §2
Remarkably, it was possible to photo-switch the tetra-iodo derivative I4-ester using near-IR light (730 nm) (Fig. 8C). […] Photo-isomerisation was not detected for the ortho-telluro derivatives. This is consistent with findings by Haberhauer and co-workers, who propose that the strong chalcogen bonds in the E isomer of a PhTe-substituted azobenzene lead to dramatic energy differences between the E and Z isomers, which suppresses photoswitching.[43] The photo-stationary states of the halogen X4 derivatives range from 50–84% (Table 1) and could also be determined for the slower relaxing chalcogen derivatives (PSS 46–95%, see Fig. S308–S323 ^† for original data).
as §1, with “spectrum. […]” for “spectrum.”

[4] = GSH stability study (decay of absorbance in phosphate buffer with 10 mM glutathione); conditions: for t1 of 1st order exponential decay fit (decomposition with GSH): 100 mM phosphate buffer containing 10 mM GSH degassed with N2, 298 K; for τ 1/2 (10 mM GSH): 100 mM phosphate buffer pH 7 containing 10 mM GSH, degassed with N2, 298 K, para substituent CH2NH2·TFA
Method: Finally, the stability of the X4 derivatives were assessed by exposing them to the highest expected intracellular concentration of glutathione (GSH, 10 mM).[28] This was achieved by treating the Boc-protected amino-methyl derivatives X4-NHBoc (X = F, Cl, Br, I, OMe, SMe and SeMe) with TFA to remove the protecting groups. The resulting ammonium-appended AB derivative was dissolved in N2-degassed 100 mM phosphate buffer at pH 7 containing 10 mM GSH, and the changes in absorbance were monitored over an extended period. […] Strong σ-donating substituents are also proposed to aid diazo lone pair protonation, and subsequent GSH attack.[25]
A 10 mM reduced glutathione (GSH) solution was prepared in degassed 100 mM sodium phosphate buffer (at least 15 minutes of N 2 bubbled through the buffer solution prior to addition to GSH). The absorption of the solution was measured periodically at 25 °C, then fitted to a 1 st Order exponential […]
Equation y = y0 + A1*exp(-(x-x0)
Figure S366. Decomposition of F4-CH2NH2•TFA Conditions: 100 mM phosphate buffer containing 10 mM GSH degassed with N2. T = 298 K. […]

[5] = Z → E thermal isomerisation, DMSO

Row | SMILES | λ max of n → π* transition [1] [nm] | τ 1/2 [2, 5] | other results
1 | OCc1cc(I)c(/N=N/c2c(I)cc(CO)cc2I)c(I)c1 [I4-OH] | 500.3 |  | 
2 | CC(C)(C)OC(=O)NCc1ccc(/N=N/c2ccc(CNC(=O)OC(C)(C)C)cc2N2CCCC2)c(N2CCCC2)c1 [(N(CH2)4)2,m-H] | 530.2 |  | 
3 | CC(C)Sc1cc(CNC(=O)OC(C)(C)C)cc(SC(C)C)c1/N=N/c1c(SC(C)C)cc(CNC(=O)OC(C)(C)C)cc1SC(C)C [(S^iPr)4-NHBoc] | 500.4 | 3 m | 
4 | CSc1cccc(SC)c1/N=N/c1c(SC)cccc1SC [(SMe)4-H] | 514.2 | 5 m | 
5 | COc1cc(CNC(=O)OC(C)(C)C)cc(OC)c1/N=N/c1c(OC)cc(CNC(=O)OC(C)(C)C)cc1OC [(OMe)4-NHBoc] | 459.8 | 197 h | 
6 | CC(C)(C)OC(=O)NCc1cc(Br)c(N=Nc2c(Br)cc(CNC(=O)OC(C)(C)C)cc2Br)c(Br)c1 [Br4-NHBoc] | 465.9 | 12 h | t1 of exponential fit (lifetime plot of Z isomer) ([2]; after irradiation with 625 nm light, rt, DMSO): 1011 ± 6.62 min
7 | COc1cc(CNC(=O)OC(C)(C)C)c(OC)c(F)c1/N=N/c1c(OC)cc(CNC(=O)OC(C)(C)C)c(OC)c1F [(OMe)2F2,m-OMe2-NHBoc] | 425.4 |  | Stability to light [3]: unstable to light
8 | CCSc1cc(CNC(=O)OC(C)(C)C)cc(SCC)c1/N=N/c1c(SCC)cc(CNC(=O)OC(C)(C)C)cc1SCC [(SEt)4-NHBoc] | 514.5 | 3 m | 
9 | CC(=O)OCc1cc(I)c(/N=N/c2c(I)cc(COC(C)=O)cc2I)c(I)c1 [I4-OAc] | 501.3 | 2 m | 
10 | CCSc1cc(CNC(=O)OC(C)(C)C)c(OC)cc1/N=N/c1cc(OC)c(CNC(=O)OC(C)(C)C)cc1SCC [(SEt)2,m-OMe2] | 464.1 | 9 m | 
11 | CN(C)c1cc(N=Nc2cc(N(C)C)c(CNC(=O)OC(C)(C)C)cc2Cl)c(Cl)cc1CNC(=O)OC(C)(C)C [Cl2,m-(NMe2)2] | 432.1 | 4 h | 
12 | CC(C)(C)OC(=O)NCc1ccc(N=Nc2ccc(CNC(=O)OC(C)(C)C)cc2Cl)c(Cl)c1 [Cl2,m-H2] | 471.0 | 34 h | 
13 | CCOC(=O)c1cc(I)c(N=Nc2c(I)cc(C(=O)OCC)cc2I)c(I)c1 [I4-ester] | 519.6 | 0.0128 h | 
14 | C[Te]c1cccc(F)c1/N=N/c1c(F)cccc1[Te]C [Te2F2-H] | 543 |  | 
15 | CCSc1cc(CNC(=O)OC(C)(C)C)c(N(C)C)cc1/N=N/c1cc(N(C)C)c(CNC(=O)OC(C)(C)C)cc1SCC [(SEt)2,m-(NMe2)2] | 543.0 | 0.0389 h | 
16 | C[Se]c1cc(CNC(=O)OC(C)(C)C)cc([Se]C)c1/N=N/c1c([Se]C)cc(CNC(=O)OC(C)(C)C)cc1[Se]C [(SeMe)4-NHBoc] | 534.3 | 0.00944 h | 
17 | C[Te]c1cccc([Te]C)c1/N=N/c1c([Te]C)cccc1[Te]C [(TeMe)4-H] | 518.5 |  | 
18 | CC(C)(C)OC(=O)NCc1cc(Cl)c(N=Nc2c(Cl)cc(CNC(=O)OC(C)(C)C)cc2Cl)c(Cl)c1 [Cl4-NHBoc] | 462.6 | 160 h | 

Row | SMILES | λ max of n → π* transition [1] [nm] | τ 1/2 [2, 5] | other results
19 | CC(C)(C)OC(=O)NCc1cc(Br)c(N=Nc2c(Br)cc(CNC(=O)OC(C)(C)C)cc2Br)c(Br)c1 [Br] |  |  | t1 of 1st order exponential decay fit (decomposition with GSH) [4]: 25249.56343 ± 57.34 s; τ 1/2 (10 mM GSH) [4]: 5 h
20 | O=C1c2ccccc2C(=O)N1Cc1cc(I)c(/N=N/c2c(I)cc(CN3C(=O)c4ccccc4C3=O)cc2I)c(I)c1 [I4-NPhth] | 511.8 | 3 m | 
21 | CC(C)(C)OC(=O)NCc1cc(I)c(/N=N/c2c(I)cc(CNC(=O)OC(C)(C)C)cc2I)c(I)c1 [I] |  |  | t1 of 1st order exponential decay fit (decomposition with GSH) [4]: 3971 ± 9.47 s; τ 1/2 (10 mM GSH) [4]: 0.7 h
22 | [N-]=[N+]=NCc1cc(I)c(/N=N/c2c(I)cc(CN=[N+]=[N-])cc2I)c(I)c1 [I4-N3] | 514.4 | 3 m | 
23 | COc1cc(N=Nc2cc(OC)c(CNC(=O)OC(C)(C)C)cc2Cl)c(Cl)cc1CNC(=O)OC(C)(C)C [Cl2,m-OMe2] | 475.0 | 18 h | 
24 | CC(C)(C)OC(=O)NCc1ccc(N=Nc2ccc(CNC(=O)OC(C)(C)C)cc2F)c(F)c1 [F2,m-H2] | 452.5 | 75 h | 
25 | COc1cc(N=Nc2cc(OC)c(CNC(=O)OC(C)(C)C)cc2F)c(F)cc1CNC(=O)OC(C)(C)C [F2,m-OMe2] | 387.1 | 77 h | 
26 | CC(C)(C)OC(=O)NCc1cc(Cl)c(/N=N/c2c(Cl)cc(CNC(=O)OC(C)(C)C)cc2Cl)c(Cl)c1 [Cl] |  |  | t1 of 1st order exponential decay fit (decomposition with GSH) [4]: 14241.72745 ± 14.23 s; τ 1/2 (10 mM GSH) [4]: 2.7 h
27 | CCOP(=O)(OCC)c1ccccc1/N=N/c1ccccc1P(=O)(OCC)OCC [(PO(OEt)2)2,m-H] | 458.2 |  | 
28 | C[Se]c1cccc([Se]C)c1/N=N/c1c([Se]C)cccc1[Se]C [(SeMe)4-H] | 533.9 | 0.0222 h | 
29 | CC(C)(C)OC(=O)NCc1cc(I)c(N=Nc2c(I)cc(CNC(=O)OC(C)(C)C)cc2I)c(I)c1 [I4-NHBoc] | 514.3 | 5 m | τ1/2 (Z) ([2]; Z → E thermal isomerisation, printed in Fig. 1 / Fig. 8): 5 min
30 | CC(C)(C)OC(=O)NCc1cc(F)c(/N=N/c2c(F)cc(CNC(=O)OC(C)(C)C)cc2F)c(F)c1 [F] |  |  | t1 of 1st order exponential decay fit (decomposition with GSH) [4]: 3748 ± 3.403 s; τ 1/2 (10 mM GSH) [4]: 0.7 h
31 | CN(C)c1cc(N=Nc2cc(N(C)C)c(CNC(=O)OC(C)(C)C)cc2F)c(F)cc1CNC(=O)OC(C)(C)C [F2,m-(NMe2)2] | 405.5 | 16 h | 
32 | CCSc1cc(CNC(=O)OC(C)(C)C)ccc1/N=N/c1ccc(CNC(=O)OC(C)(C)C)cc1SCC [(SEt)2,m-H2] | 431.3 | 44 m | 
33 | CCOC(=O)c1cc(SCC)c(/N=N/c2c(SCC)cc(C(=O)OCC)cc2SCC)c(SCC)c1 [(SEt)4-ester] | 590.0 | 0.0144 h | 
34 | N#Cc1cc(I)c(/N=N/c2c(I)cc(C#N)cc2I)c(I)c1 [I4-CN] | 520.8 | 0.00556 h | 
35 | CC(C)(C)OC(=O)NCc1cc(F)c(N=Nc2c(F)cc(CNC(=O)OC(C)(C)C)cc2F)c(F)c1 [F4-NHBoc] | 454 | 1.25y | 
36 | CCOC(=O)c1cc([Se]C)c(/N=N/c2c([Se]C)cc(C(=O)OCC)cc2[Se]C)c([Se]C)c1 [(SeMe)4-ester] | 588.8 | 0.000694 h | 
